Experimental data published in patent US6984649B1, “Pyridine derivatives” (Bayer Aktiengesellschaft, priority 2000, dated 2006).
pIC50: −log10 of the molar value.

The molecules below were run against T1, human IKK-β (Homo sapiens, UniProt O14920) (assay: IKK-β kinase inhibitory assay). Details: compounds as yielded by solid phase synthesis, purity about 40 to 90%, read-out: In vitro activity grade (In vitro IC50).
T1 construct: A cDNA fragment encoding human IKK-β open reading frame was generated by PCR; His tag (from pcDNA3.1/His C); made in house; host or cells: Sf21 insect cells (baculovirus); substrate made in E. coli
T1 sequence (O14920 1-756): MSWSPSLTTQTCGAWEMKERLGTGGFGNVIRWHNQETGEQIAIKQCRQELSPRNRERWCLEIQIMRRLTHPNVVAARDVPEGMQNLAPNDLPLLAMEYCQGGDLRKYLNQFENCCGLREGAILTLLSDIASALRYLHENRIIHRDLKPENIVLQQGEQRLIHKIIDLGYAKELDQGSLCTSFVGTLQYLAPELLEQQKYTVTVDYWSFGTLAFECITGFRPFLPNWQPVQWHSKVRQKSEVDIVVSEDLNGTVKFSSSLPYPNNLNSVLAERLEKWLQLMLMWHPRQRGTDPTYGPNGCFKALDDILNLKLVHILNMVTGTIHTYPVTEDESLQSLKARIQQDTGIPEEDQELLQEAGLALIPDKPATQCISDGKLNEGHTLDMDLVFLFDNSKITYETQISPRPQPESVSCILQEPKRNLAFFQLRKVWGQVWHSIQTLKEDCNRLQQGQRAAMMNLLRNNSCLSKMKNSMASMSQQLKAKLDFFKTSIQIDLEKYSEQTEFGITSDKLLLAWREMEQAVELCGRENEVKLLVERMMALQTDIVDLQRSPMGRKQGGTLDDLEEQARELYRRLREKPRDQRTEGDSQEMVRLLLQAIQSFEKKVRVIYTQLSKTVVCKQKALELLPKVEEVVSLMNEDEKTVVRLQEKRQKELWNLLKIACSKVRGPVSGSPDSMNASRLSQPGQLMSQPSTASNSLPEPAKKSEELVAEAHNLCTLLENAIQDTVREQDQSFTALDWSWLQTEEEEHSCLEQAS
Type: biochemical
Method in brief: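 His-tagged human IKK-β from baculovirus-infected Sf21 cells (0.6 μg/ml final) phosphorylates biotinylated GST-IκBα(1-54) (0.2 μM) in Tris-HCl pH 7.6 buffer with MgCl2. ATP with [γ-33P]ATP added, then 2 h at room temperature. Biotinylated substrate captured on streptavidin plates; bound radioactivity counted by scintillation.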

Row | pIC50 | SMILES
1 | > 6.30 | NC(=O)NCc1c(C2CCCNC2)cc(-c2c(O)cccc2OCC2CC2)nc1N (stereo not shown) [Example 23-13]
2 | > 6.30 | CN1CCCC(c2cc(-c3ccccc3O)nc(N)c2C#N)C1 (stereo not shown) [Example 3-03]
3 | > 6.30 | CCCN1CCCC(c2cc(-c3ccccc3O)nc(N)c2C#N)C1 (stereo not shown) [Example 3-04]
4 | > 6.30 | COc1ccc(CN2CCCC(c3cc(-c4c(O)cccc4O)nc(N)c3C#N)C2)cc1 (stereo not shown) [Example 3-07]
5 | > 6.30 | CC(=O)NCc1c(C2CCNCC2)cc(-c2c(O)cccc2OCC2CC2)nc1N [Example 23-07]
6 | > 6.30 | Nc1nc(-c2c(O)cccc2OCC2CC2)cc(C2CCNCC2)c1CO [Example 12-05]
7 | > 6.30 | Nc1nc(-c2c(O)cccc2OCC2CC2)cc(C2CCCNC2)c1CNC(=O)Nc1ccccc1 (stereo not shown) [Example 23-14]
8 | > 6.30 | CCCNC(=O)NCc1c(C2CCCNC2)cc(-c2c(O)cccc2OCC2CC2)nc1N (stereo not shown) [Example 23-12]
9 | > 6.30 | N#Cc1c(C2CCCN(Cc3ccccc3)C2)cc(-c2ccccc2O)nc1N (stereo not shown) [Example 3-05]
10 | > 6.30 | CN(C)C(=O)NCc1c(C2CCCNC2)cc(-c2c(O)cccc2OCC2CC2)nc1N (stereo not shown) [Example 23-11]
11 | > 6.30 | O=C1Nc2nc(-c3c(O)cccc3OCc3ccccc3)cc(C3CCCNC3)c2CO1 (stereo not shown) [Example 18-10]
12 | > 6.30 | CC(C)CCCOc1cccc(O)c1-c1cc(C2CCNCC2)c2c(n1)NC(=O)OC2 [Example 18-15]
13 | 5.00 to 5.70 | COc1ccc(CN2CCCC(c3cc(-c4c(O)cccc4OCC4CC4)nc(N)c3C#N)C2)cc1 (stereo not shown) [Example 3-08]
14 | > 6.30 | Nc1nc(-c2c(O)cccc2OCC2CC2)cc(C2CCCNC2)c1CNC(=S)Nc1ccccc1 (stereo not shown) [Example 23-15]
15 | > 6.30 | CC(C)(C)COC(=O)NCc1c(C2CCCNC2)cc(-c2c(O)cccc2OCC2CC2)nc1N (stereo not shown) [Example 23-10]
16 | > 6.30 | CC(C)COC(=O)N1Cc2c(C3CCCNC3)cc(-c3c(O)cccc3OCC3CC3)nc2NC1=O (stereo not shown) [Example 24-06]
17 | 5.00 to 5.70 | Cc1cc(-c2c(O)cccc2OCC2CC2)nc2c1COC(=O)N2 [Example 18-09]

Row | pIC50 | SMILES
18 | > 6.30 | Nc1nc(-c2ccccc2O)cc(C2CCCNC2)c1CNC(=O)C1CC1 (stereo not shown) [Example 23-05]
19 | > 6.30 | NC(=O)N1Cc2c(C3CCCNC3)cc(-c3c(O)cccc3OCC3CC3)nc2NC1=O (stereo not shown) [Example 24-10]
20 | 5.70 to 6.30 | O=C1Nc2nc(-c3c(O)cccc3O)cc(C3CCNCC3)c2CO1 [Example 18-12]
21 | > 6.30 | CC(C)OC(=O)NCc1c(C2CCCNC2)cc(-c2c(O)cccc2OCC2CC2)nc1N (stereo not shown) [Example 23-08]
22 | > 6.30 | O=C1Nc2nc(-c3ncccc3O)cc(C3CCCNC3)c2CO1 (stereo not shown) [Example 18-08]
23 | > 6.30 | CC(C)(C)COc1cccc(O)c1-c1cc(C2CCCNC2)c(CO)c(N)n1 (stereo not shown) [Example 12-04]
24 | > 6.30 | CC(=O)NCc1c(C2CCCNC2)cc(-c2ccccc2O)nc1N (stereo not shown) [Example 23-04]
25 | > 6.30 | CC(C)COC(=O)NCc1c(C2CCCNC2)cc(-c2c(O)cccc2OCC2CC2)nc1N (stereo not shown) [Example 23-09]
26 | > 6.30 | CC(C)(C)COC(=O)N1Cc2c(C3CCCNC3)cc(-c3c(O)cccc3OCC3CC3)nc2NC1=O (stereo not shown) [Example 24-07]
27 | > 6.30 | CC(C)CCCOc1cccc(O)c1-c1cc(C2CCNCC2)c(CO)c(N)n1 [Example 12-07]
28 | > 6.30 | CCCOc1cccc(O)c1-c1cc(C2CCNCC2)c(CO)c(N)n1 [Example 12-06]
29 | 5.70 to 6.30 | N#Cc1c(C2CCCN(CCc3ccccc3)C2)cc(-c2ccccc2O)nc1N (stereo not shown) [Example 3-06]
30 | > 6.30 | CCCOc1cccc(O)c1-c1cc(C2CCNCC2)c2c(n1)NC(=O)OC2 [Example 18-14]
31 | > 6.30 | Nc1nc(-c2c(O)cccc2OCc2ccccc2)cc(C2CCCNC2)c1CO (stereo not shown) [Example 12-02]
32 | > 6.30 | CCCOc1cccc(O)c1-c1cc(C2CCCNC2)c2c(n1)NC(=O)OC2 (stereo not shown) [Example 18-11]
33 | > 6.30 | CC(C)OC(=O)N1Cc2c(C3CCCNC3)cc(-c3c(O)cccc3OCC3CC3)nc2NC1=O (stereo not shown) [Example 24-05]

Continued, molecule first:

Row | SMILES | pIC50
34 | N#Cc1c(C2CCCNC2)cc(-c2c(O)cccc2OCc2ccccc2-c2ccccc2)nc1N (stereo not shown) [Example 2-22] | > 6.30
35 | N#Cc1c(C2CCCNC2)cc(-c2c(O)cccc2OCCc2ccccc2)nc1N (stereo not shown) [Example 2-41] | > 6.30
36 | Cc1cc(COc2cccc(O)c2-c2cc(C3CCCNC3)c(C#N)c(N)n2)no1 (stereo not shown) [Example 2-49] | > 6.30
37 | N#Cc1c(C2CCCNC2)cc(-c2c(O)cccc2OCc2ccc(F)c(F)c2)nc1N (stereo not shown) [Example 2-29] | > 6.30
38 | N#Cc1c(C2CCCNC2)cc(-c2c(O)cccc2OCc2ccccc2F)nc1N (stereo not shown) [Example 2-25] | > 6.30
39 | N#Cc1c(C2CCCNC2)cc(-c2c(O)cccc2OCCC(c2ccccc2)c2ccccc2)nc1N (stereo not shown) [Example 2-46] | > 6.30
40 | N#Cc1c(C2CCCNC2)cc(-c2c(O)cccc2OCc2ccncc2)nc1N (stereo not shown) [Example 2-44] | > 6.30
41 | N#Cc1c(C2CCCNC2)cc(-c2c(O)cccc2OCc2cccc(F)c2)nc1N (stereo not shown) [Example 2-27] | > 6.30
42 | N#Cc1c(C2CCCNC2)cc(-c2c(O)cccc2OCc2ccc(Cl)c(Cl)c2)nc1N (stereo not shown) [Example 2-05] | > 6.30
43 | N#Cc1c(C2CCCNC2)cc(-c2c(O)cccc2OCC(=O)c2ccccc2)nc1N (stereo not shown) [Example 2-51] | > 6.30
44 | N#Cc1c(C2CCCNC2)cc(-c2c(O)cccc2OCc2cccc3ccccc23)nc1N (stereo not shown) [Example 2-32] | > 6.30
45 | N#Cc1c(C2CCCNC2)cc(-c2c(O)cccc2OCc2ccc(F)cc2)nc1N (stereo not shown) [Example 2-28] | > 6.30
46 | CC(C)Oc1cccc(O)c1-c1cc(C2CCCNC2)c(C#N)c(N)n1 (stereo not shown) [Example 2-54] | > 6.30
47 | N#Cc1c(C2CCCNC2)cc(-c2c(O)cccc2OCc2ccc(Br)cc2)nc1N (stereo not shown) [Example 2-39] | > 6.30
48 | CC(C)(C)c1ccc(COc2cccc(O)c2-c2cc(C3CCCNC3)c(C#N)c(N)n2)cc1 (stereo not shown) [Example 2-31] | > 6.30
49 | N#Cc1c(C2CCCNC2)cc(-c2c(O)cccc2OCc2ccc(F)cc2F)nc1N (stereo not shown) [Example 2-26] | > 6.30
50 | CCCOc1cccc(O)c1-c1cc(C2CCCNC2)c(C#N)c(N)n1 (stereo not shown) [Example 2-55] | > 6.30
51 | COC(=O)c1ccc(COc2cccc(O)c2-c2cc(C3CCCNC3)c(C#N)c(N)n2)cc1 (stereo not shown) [Example 2-38] | > 6.30
52 | CC(C)COc1cccc(O)c1-c1cc(C2CCCNC2)c(C#N)c(N)n1 (stereo not shown) [Example 2-59] | > 6.30
53 | N#Cc1c(C2CCCNC2)cc(-c2c(O)cccc2OCC2CCCCC2)nc1N (stereo not shown) [Example 2-53] | > 6.30
54 | N#Cc1c(C2CCCNC2)cc(-c2c(O)cccc2OCc2ccc(-c3ccccc3)cc2)nc1N (stereo not shown) [Example 2-33] | > 6.30
55 | N#Cc1c(C2CCCNC2)cc(-c2c(O)cccc2OCc2ccc(Cl)cc2Cl)nc1N (stereo not shown) [Example 2-34] | > 6.30
56 | Cc1ccc(COc2cccc(O)c2-c2cc(C3CCCNC3)c(C#N)c(N)n2)cc1 (stereo not shown) [Example 2-35] | > 6.30
57 | N#Cc1c(C2CCCNC2)cc(-c2c(O)cccc2OCc2ncon2)nc1N (stereo not shown) [Example 2-48] | > 6.30
58 | COc1cccc(O)c1-c1cc(C2CCCNC2)c(C#N)c(N)n1 (stereo not shown) [Example 2-57] | > 6.30
59 | N#Cc1c(C2CCCNC2)cc(-c2c(O)cccc2OCc2ccc(Br)cc2)nc1N (stereo not shown) [Example 2-24] | > 6.30
60 | N#Cc1c(C2CCNCC2)cc(-c2c(O)cccc2OCCc2ccccc2)nc1N [Example 2-52] | > 6.30
61 | N#Cc1c(C2CCCNC2)cc(-c2c(O)cccc2OCCCc2ccccc2)nc1N (stereo not shown) [Example 2-50] | > 6.30
